Numbered stars: 1 amine (or outer) side, 2 acyl side, 3 side chain; on linkers, the order of the positions; unused ones are H or OH. Bridge positions count the residues as written; N and C are the ends. Square brackets hold non-standard residues; d marks the D form. Peptide text beside a SMILES is read from it. * marks the point of attachment. X1 = O=C([C@H](CCCCCC=[*:3])N[*:1])[*:2]; Nle = CCCC[C@H](N)C(=O)O; BrAc = O=C(CBr)*
Key:
[1] = tested on: FtsB-mNG localization in E. coli lptD4213 (imp); test: Localization of FtsB-mNG (fluorescence microscopy); assay type: cell-based; details: peptide c = 100 μM, 60 min after addition, MOPS rich medium, 37 °C
Description: were incubated for 1 h at 50 °C. The condensates were collected by centrifuging for 10 s. The digests were mixed for a few seconds and transferred to another tube. 0.5 % TFA was added to inactivate trypsin. The samples were […]
E.coli mutant lptD4213 (imp)
MOPS: MOPS EZ Rich Defined Medium Kit M2105 (Teknova).
At the end of the day, the cells
The next day, the cells were grown and diluted […]
objective. […] In all experiments, the cells […]
ex470/40, dic495LP, em525/50).

[2] = tested on: E. coli 87; test: Zebrafish larvae infection model (E. coli 87 expressing mScarlet); assay type: in vivo, zebrafish (Danio rerio) larvae; details: L8S1 3.125 μM, 17fα 70 μM, 15 zebrafish per condition
Description: 1.13 Microinjection of zebrafish larvae with E.coli 87 expressing mScarlet Transparent Casper zebrafish (Danio rerio) larvae were infected and treated according to protocols described by Van der Sar et al. and Bernard et al..7,8 In brief, zebrafish larvae collected from a laboratory-breeding colony kept at 24 °C and a 12:12 h dark/light regime. Larvae were selected based on morphology according to hours post fertilization (hpf) and kept at 28 °C. All protocols followed the international guidelines on the protection of animals used for scientific purposes specified by the EU Directive 2010/63/EU, which allows zebrafish larvae to be used up to the moment of free-living (5–7 dpf). Larvae were dechorionated at 28 hpf and anaesthetized in 0.2% tricaine methanesulfonate (MS222, Fluka A-5040). Larvae were individually infected with 1 nL, containing approximately 150-200 CFU ([…]), of mScarlet expressing clinical isolate E. coli 87 via microinjection of the caudal vein as described previously.9 One hour post infection, larvae were treated with L8S1, 17fα or a combination of the two via another microinjection of 1 nL in the caudal vein. To correct dilution of the treatment upon injection in the vein (1 nL in 250 nL zebrafish larvae volume), treatments were diluted in 0.1% phenol red (Sigma-Aldrich, p-0290) in phosphate buffered saline (PBS) to 250x the concentration as tested in vitro. Zebrafish larvae were kept at 30 °C throughout the experiment and survival of the larvae, based on heartbeat, was determined every 24 h for 2 d. Moreover, 18 h post infection larvae were anaesthetized using MS222 and bacterial load was determined using an Olympus IX83 fluorescence microscope (4x objective magnification, Hamamatsu ORCA-Flash 4.0 camera) at specific wavelength for detection of red fluorescence (excitation/emission, 580/610 nm). Obtained images were analyzed using CellProfiler 3.19 (Broad Institute, Cambridge, MA, USA) with a custom-made automated analysis pipeline to count and quantify pixel intensity within the larvae. Integrated red fluorescence intensity per larvae was used as a quantification of bacterial burden.

[3] = Toxicity test in uninfected zebrafish larvae; details: 15 zebrafish per condition, L8S1 3.125 µM, 17fα 70 µM, n = 1 replicate
[4] = molecular target: FtsQ(50–276) (Escherichia coli, UniProt P06136); test: LC/MS analysis of modified FtsQ(50–276); assay type: biochemical, E. coli; set-up: pET16b FtsQ(50˗276), a His6 fusion; made in house; host or cells: Escherichia coli BL21 DE3; details: HPLC/MS, deconvolution; expected for reaction with 1 equiv ΔMW = 2122 g/mol; 37 °C, NH4HCO3 buffer pH 7.6
Description: 1.6 LC/MS-analysis of modified FtsQ(50˗276)
To determine the reactivity of 17fα, FtsQ(50˗276) was diluted to a concentration of 100 μM in 20 mM NH4HCO3 buffer (pH 7.6, 150 mM NaCl). The peptide 17fα was diluted to a concentration of 250 μM in the same buffer.
Equal volumes of both solutions were mixed and incubated at 37 °C for the given time period (1 h or 3 h). The reaction was quenched by 4-fold dilution in ACN/H2O (1:1) + 0.1 % TFA.
20 μL of the resulting solution were injected and analysed by analytical reverse-phase HPLC (1260 Infinity II, Agilent Technology; flow rate of 0.3 mL·min-1, A: water with 0.1% FA, B: 80% iPrOH, 10% ACN, 10% H2O with 0.1% FA; AdvanceBio RP-mAB C4 column, 2.1×50 mm, 3.5 µm particle size) using a 10 min gradient (20-80% B) coupled to a mass spectrometer (Infinity Lab LC/MSD XT, Agilent Technology) using API-ES (MSD signal settings: Polarity: Positive; scan mass range: 500-3000; Fragmentor 70). Analytical HPLC chromatograms at 210 nm and MS spectra, masses and m/z ratios are shown in the appendix – analytics part. […]
Morphology assays were executed to assess the physiological change of E.coli cells upon exposure to different peptides. All steps in this protocol were performed under sterile conditions. For each assay, 20 mL of fresh MOPS medium was prepared (40 mM MOPS, 4 mM tricine, 0.01 mM FeSO-4, 9.5 mM NH4Cl, 0.276 mM K2SO4, 0.5

Chain of FtsQ(50–276) (P06136 50-276): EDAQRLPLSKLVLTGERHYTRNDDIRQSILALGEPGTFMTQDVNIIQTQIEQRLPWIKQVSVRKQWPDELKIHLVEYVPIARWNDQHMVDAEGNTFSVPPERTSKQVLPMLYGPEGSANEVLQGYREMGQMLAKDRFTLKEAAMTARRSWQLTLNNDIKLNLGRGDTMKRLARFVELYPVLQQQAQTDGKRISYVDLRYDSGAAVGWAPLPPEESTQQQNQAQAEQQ

CCCC[C@@H]1NC(=O)[C@H](CO)NC(=O)[C@H](CC(C)C)NC(=O)[C@H](CCC(=O)O)NC(=O)[C@H](CC(N)=O)NC(=O)[C@@H](NC(=O)[C@H](C)NC(C)=O)CCCCCC=CCCCCC[C@@H](C(=O)N[C@@H](CCCCNC(=O)CBr)C(=O)N[C@@H](Cc2ccccc2)C(=O)N[C@@H](Cc2ccc(O)cc2)C(=O)N[C@@H](CCCNC(=N)N)C(=O)N[C@@H](CC(C)C)C(N)=O)NC(=O)CNC(=O)[C@@H]2CCCN2C(=O)[C@H](CCCNC(=N)N)NC(=O)[C@H]([C@@H](C)O)NC1=O [17fα] (Ac-A[X1]NELS[Nle]TRPG[X1]K(BrAc)FYRL-NH2; staple 2-12)
FtsB-mNG midcell localization [1]: loss of midcell localization
Survival rate of zebrafish larvae after 24 h (mean ± SD) ([2]; infected with E. coli 87 (189 CFU), treated 1 h post infection by microinjection, survival by heartbeat, n = 4 replicates, SD): 20.0 ±16.3
Survival rate of zebrafish larvae after 24 h, replicate #1 ([2]; replicate #1, E. coli 87 (189 CFU)): 0
Survival rate of zebrafish larvae after 24 h, replicate #2 ([2]; replicate #2, E. coli 87 (189 CFU)): 40
Survival rate of zebrafish larvae after 24 h, replicate #3 ([2]; replicate #3, E. coli 87 (189 CFU)): 20
Survival rate of zebrafish larvae after 24 h, replicate #4 ([2]; replicate #4, E. coli 87 (189 CFU)): 20
Surviving zebrafish, Day 1 [3]: 15
Surviving zebrafish, Day 2 [3]: 15
ΔMW of FtsQ(50–276) after treatment (obtained mass difference) [4]: 2124 g/mol
